This is an account of results in ChEMBL document CHEMBL5608163, “Structure modification of anoplin for fighting resistant bacteria” (Eur J Med Chem, 2024).

One data set relates to Pseudomonas aeruginosa. As to the kind of experiment: Antibacterial activity against Pseudomonas aeruginosa PAO1 assessed as bacterial growth inhibition. It counts as functional.
Data set [1] has as its system Zymomonas mobilis. As to the kind of experiment: Antibacterial activity against Zymomonas mobilis ATCC 10988 assessed as bacterial growth inhibition. It counts as functional.
Data set [2] concerns Escherichia coli. As to the kind of experiment: Antibacterial activity against Escherichia coli DH5a assessed as bacterial growth inhibition. The data set is classed as functional.
Data set [3] is described as follows: Hemolytic activity in human erythrocytes measured after 1 hrs by microplate reader analysis. The data set is classed as toxicity, cell-based, Erythrocyte.
In data set [4] the test system is Mycolicibacterium smegmatis. In words: Antibacterial activity against Mycobacterium smegmatis mc2 155 assessed as bacterial growth inhibition. It counts as functional.
Data set [5] has as its system Bacillus subtilis. In words: Antibacterial activity against Bacillus subtilis assessed as bacterial growth inhibition. It counts as functional.
Data set [6] is described as follows: Hemolytic activity in human RBC assessed as hemolysis. It counts as toxicity, cell-based, Erythrocyte. The settings on record: red blood cells.
The subject of data set [7] is Staphylococcus aureus. In words: Antibacterial activity against Staphylococcus aureus. It counts as functional.
The subject of data set [8] is Escherichia coli. In words: Antibacterial activity against Escherichia coli. The data set is classed as functional.
For data set [9], the system named is Zymomonas mobilis. In words: Antibacterial activity against Zymomonas mobilis ATCC 10988 assessed as reduction in bacterial growth incubated for 24 hrs by broth micro-dilution method. The data set is classed as functional. In general terms: Broth dilution looks for growth in wells or tubes with falling amounts of substance.
The nature of data set [10]: Hemolytic activity against human Red blood cells assessed as cell lysis. It counts as toxicity, cell-based, Erythrocyte.
Data set [11] has as its system Mycolicibacterium smegmatis. In words: Antimycobacterial activity against Mycobacterium smegmatis mc2 155 assessed as reduction in bacterial cell growth incubated for 24 hrs by resazurin dye based broth microdilution method. It counts as functional. On the technique in general: Alamar Blue is a resazurin reagent that responds to reducing activity.
For data set [12], the system named is Escherichia coli. As to the kind of experiment: Antibacterial acitivity against Escherichia coli DH5a assessed as bacterial growth inhibition incubated for 24 hrs by broth micro-dilution method. The data set is classed as functional.
Data set [13] concerns Bacillus subtilis. As to the kind of experiment: Antimicrobial activity against Bacillus subtilis assessed as microbial growth inhibition incubated for 24 hrs by broth micro-dilution method. The data set is classed as functional.
In data set [14] the test system is Escherichia coli. As to the kind of experiment: Antibacterial activity against Escherichia coli ATCC 25922 assessed as reduction in bacterial growth. It counts as functional.
Data set [15] deals with Staphylococcus aureus. As to the kind of experiment: Antibacterial activity against Staphylococcus aureus ATCC 29213 assessed as bacterial growth inhibition measured after 18 hrs by CLSI protocol based two-fold serial microdilution method. It counts as functional.

Structures are written as SMILES. Values after ≈ are worked out from the molar mass of the structure shown. Peptide text beside a SMILES is read from it. * marks the point of attachment. Undecanoyl = CCCCCCCCCCC(=O)*; Nonanoyl = CCCCCCCCC(=O)* Where only a bound is given, the exact number is not on record here.

Usually MIC stands for the lowest concentration that inhibits growth of the organism. As a reminder, the HC50 is the concentration giving 50% haemolysis. In the case of `CCCCCCCCCCC(=O)NCC(=O)N[C@@H](CC(C)C)C(=O)N[C@@H](CC(C)C)C(=O)N[C@@H](CCCCN)C(=O)N[C@@H](CCCCN)C(=O)N[C@H](C(=O)N[C@@H](CCCCN)C(=O)N[C@@H](CCCNC(=N)N)C(=O)N[C@@H](CC(C)C)C(=O)N[C@@H](CC(C)C)C(N)=O)[C@@H](C)CC` (Undecanoyl-GLLKKIKRLL-NH2), the MIC with Pseudomonas aeruginosa came out at 2.58 µM (≈ 3.48 µg/mL); in the data set on Zymomonas mobilis [1] it was 4.3 µM (≈ 5.8 µg/mL); in the data set on Escherichia coli [2] it was 34.4 µM (≈ 46.3 µg/mL); in data set [4] it was 86.2 µM (≈ 116 µg/mL); in the data set on Bacillus subtilis [5], 86.2 µM (≈ 116 µg/mL). For the same molecule, the HC50 at 1 h in [3] was 38 µM.

Consider `CCCCCCCCCCC(=O)NCC(=O)N[C@@H](CC(C)C)C(=O)N[C@@H](CCCCN)C(=O)N[C@@H](CCCCN)C(=O)N[C@H](C(=O)N[C@H](C(=O)N[C@@H](CCCCN)C(=O)N[C@@H](CCCCN)C(=O)N[C@@H](CC(C)C)C(=O)N[C@@H](CC(C)C)C(N)=O)[C@@H](C)CC)[C@@H](C)CC` (Undecanoyl-GLKKIIKKLL-NH2), for which the MIC in the data set with Pseudomonas aeruginosa came to 16.7 µM (≈ 22 µg/mL); with Zymomonas mobilis [1], 12.5 µM (≈ 16.5 µg/mL); with Escherichia coli [2] it was 25 µM (≈ 33 µg/mL); in [4], 0.42 µM (≈ 0.555 µg/mL); with Bacillus subtilis [5], 5.83 µM (≈ 7.7 µg/mL). This molecule also returned an HC50 at 1 h in data set [3] of 62.9 µM.

Take `CC[C@H](C)[C@H](NC(=O)[C@H](CCCNC(=N)N)NC(=O)[C@H](CCCCN)NC(=O)[C@H](CC(C)C)NC(=O)[C@H](CC(C)C)NC(=O)[C@@H](N)CCCCN)C(=O)N[C@@H](CCCCN)C(=O)N[C@H](C(=O)N[C@@H](CC(C)C)C(=O)N[C@@H](CC(C)C)C(N)=O)[C@@H](C)O` (H-KLLKRIKTLL-NH2): the HC50 in data set [6] is 29.3 µM. Also, the MIC was more than 19.6 µM against Staphylococcus aureus [7] and 19.6 µM (≈ 24 µg/mL) against Escherichia coli [8].

For `CC[C@H](C)[C@H](NC(=O)[C@H](Cc1ccccc1)NC(=O)[C@H](CCCCN)NC(=O)[C@H](CC(C)C)NC(=O)[C@H](CC(C)C)NC(=O)[C@@H](N)CCCCN)C(=O)N[C@@H](CCCCN)C(=O)N[C@H](C(=O)N[C@@H](CC(C)C)C(=O)N[C@@H](CC(C)C)C(N)=O)[C@@H](C)O` (H-KLLKFIKTLL-NH2), the HC50 in [6] is 295 µM. The results for the MIC against Staphylococcus aureus [7] and with Escherichia coli [8] were 5.8 µM (≈ 7.05 µg/mL) and 2.5 µM (≈ 3.04 µg/mL), respectively.

As for `CCCCCCCCC(=O)NCC(=O)N[C@@H](CC(C)C)C(=O)N[C@@H](CC(C)C)C(=O)N[C@@H](CCCCN)C(=O)N[C@H](C(=O)N[C@H](C(=O)N[C@@H](CCCCN)C(=O)N[C@@H](CCCCN)C(=O)N[C@@H](CC(C)C)C(=O)N[C@@H](CC(C)C)C(N)=O)[C@@H](C)CC)[C@@H](C)CC` (Nonanoyl-GLLKIIKKLL-NH2), the MIC with Pseudomonas aeruginosa was 23.3 µM (≈ 29.7 µg/mL); with Zymomonas mobilis [1], 7.75 µM (≈ 9.9 µg/mL); with Escherichia coli [2], more than 155 µM; in data set [4], 15.5 µM (≈ 19.8 µg/mL); with Bacillus subtilis [5], 5.43 µM (≈ 6.94 µg/mL). For the same molecule, the HC50 at 1 h in [3] is more than 155 µM.

Regarding `CC[C@H](C)[C@H](NC(=O)[C@H](Cc1ccccc1)NC(=O)[C@H](CCCCN)NC(=O)[C@H](CC(C)C)NC(=O)[C@H](CC(C)C)NC(=O)[C@@H](N)CCCCN)C(=O)N[C@@H](CCCCN)C(=O)N[C@@H](CCCCN)C(=O)N[C@@H](CC(C)C)C(=O)N[C@@H](CC(C)C)C(N)=O` (H-KLLKFIKKLL-NH2), the MIC was 8.9 µM (≈ 11.1 µg/mL) with Zymomonas mobilis [9], 13.3 µM (≈ 16.5 µg/mL) in data set [11], 322 µM (≈ 400 µg/mL) in the data set with Escherichia coli [12] and 35.6 µM (≈ 44.2 µg/mL) with Bacillus subtilis [13]. Also, the HC50 in data set [10] is more than 403 µM.

Take `CC[C@H](C)[C@H](NC(=O)[C@H](CC(N)=O)NC(=O)[C@H](CCCCN)NC(=O)[C@H](CC(C)C)NC(=O)[C@H](CC(C)C)NC(=O)CN)C(=O)N[C@@H](CCCCN)C(=O)N[C@H](C(=O)N[C@@H](CC(C)C)C(=O)N[C@@H](CC(C)C)C(N)=O)[C@@H](C)O` (H-GLLKNIKTLL-NH2): the MIC in the data set on Escherichia coli [14] and in the data set on Staphylococcus aureus [15] was 1.7 µM (≈ 1.89 µg/mL) in each case.

As for `CC[C@H](C)[C@H](NC(=O)[C@H](Cc1ccccc1)NC(=O)[C@H](CCCCN)NC(=O)[C@H](CC(C)C)NC(=O)[C@H](CC(C)C)NC(=O)[C@@H](N)CCCNC(=N)N)C(=O)N[C@@H](CCCCN)C(=O)N[C@@H](CCCCN)C(=O)N[C@@H](CC(C)C)C(=O)N[C@@H](CC(C)C)C(N)=O` (H-RLLKFIKKLL-NH2), the MIC amounted to 7.9 µM (≈ 10 µg/mL) in the data set with Zymomonas mobilis [9], 15.8 µM (≈ 20.1 µg/mL) in data set [11], 315 µM (≈ 400 µg/mL) with Escherichia coli [12] and 31.5 µM (≈ 40 µg/mL) with Bacillus subtilis [13]. In addition, in data set [10], the HC50 is more than 394 µM.

With `CCCCCCCCCCC(=O)NCC(=O)N[C@@H](CC(C)C)C(=O)N[C@@H](CC(C)C)C(=O)N[C@@H](CCCCN)C(=O)N[C@H](C(=O)N[C@H](C(=O)N[C@@H](CCCCN)C(=O)N[C@@H](CCCNC(=N)N)C(=O)N[C@@H](CC(C)C)C(=O)N[C@@H](CC(C)C)C(N)=O)[C@@H](C)CC)[C@@H](C)CC` (Undecanoyl-GLLKIIKRLL-NH2), the MIC in the data set on Pseudomonas aeruginosa is 33.3 µM (≈ 44.4 µg/mL); in the data set on Zymomonas mobilis [1], 12.5 µM (≈ 16.7 µg/mL); in the data set with Escherichia coli [2], more than 167 µM; in data set [4], 33.3 µM (≈ 44.4 µg/mL); in the data set on Bacillus subtilis [5], 167 µM (≈ 222 µg/mL). This molecule registered an HC50 at 1 h in data set [3] of 56.8 µM.
